In PMC10652874, “Investigation into the mechanism of action of the antimicrobial peptide epilancin 15X” (Frontiers in Microbiology, 2023):
Like-named read-outs stand apart in the source and are kept apart here. Where no end group is shown, it is not given here.

Tests used:
[1] = test system: LiaRS response in B. subtilis BSF2470; assay: LiaRS disk diffusion reporter assay (β-galactosidase, X-Gal); type: cell-based, Bacillus subtilis; conditions: 37°C overnight
Method: The LiaRS response was determined via disk diffusion as described previously ([Mascher et al., 2004]). Briefly, B. subtilis strain BSF2470 was grown in LB supplemented with erythromycin (1 μg/mL) overnight at 37°C with shaking. A total of 20 μL of overnight culture was mixed with 100 μL of 20 mg/mL X-Gal (dissolved in DMF) and 5 mL of 0.7% soft LB agar then poured onto a 1.5% LB agar base. The plates were allowed to cool and dry at room temperature for 20 min. The desired molecule was either spotted on a filter paper disk and placed on top of the agar or directly spotted on the agar. The following molecules were tested: ampicillin, 0.5 μL on filter disk, 1 μL directly spotted, 100 mg/mL; compound 1771/LtaS-IN-1, 4 μL, 20 mM (dissolved in DMSO); epilancin 15X, 4 μL, 5 mM; vancomycin, 1 μL, 100 mg/mL; nisin, 4 μL, 2 mM; bacitracin, 4 μL on filter disk, 5 μL directly spotted, 100 mg/mL; water, 5 μL; magainin 2, 10 μL, 1 mM; melittin, 10 μL, 1 mM. The plate was incubated at 37°C overnight. After overnight incubation, the plate was imaged. Compound 1771 (CS-0114233) was purchased from ChemScene LLC.
To investigate the effect of epilancin 15X on the cell envelope, we employed the two-component LiaRS reporter system in B. subtilis (lipid II cycle interfering antibiotic response regulator and sensor; [Mascher et al., 2004]). Briefly, the LiaRS assay is a disk diffusion assay used to screen for the ability of compounds to induce β-galactosidase expression in engineered B. subtilis BSF2470 ([Mascher et al., 2004]). Molecules that produce a blue ring around the edge of the zone of growth inhibition are believed to interfere with the lipid II cycle ([Hachmann et al., 2009]). […] The compound 1771, also called LtaS-IN-1, inhibits lipoteichoic acid (LTA) synthesis ([Richter et al., 2013]) and to the best of our knowledge has not been tested in the LiaRS assay.

S. carnosus TM300 [2] = assay: Agar diffusion bioactivity assay with lipids in flanking wells; type: cell-based, Staphylococcus carnosus; conditions: S. carnosus TM300 on BHI agar, overnight
Method: For agar diffusion antimicrobial activity assays, the autoclaved 1.5% agar was prepared in the appropriate medium and cooled in a 40°C water bath for 15 min. A total of 50 μL overnight culture of the sensitive strain was added to the agar and kept in the water bath. A total of 25 mL seeded agar was poured into a sterile OmniTray (Nunc) and allowed to solidify at room temperature for 30 min. An additional 35 mL of seeded agar was poured over the lower solidified agar layer. A sterile 96-well PCR plate was placed in the molten agar upper layer, and the agar was allowed to solidify at 25°C for 30 min. After sufficient solidification, the 96-well PCR plate was removed. Then 20 μL volume of each peptide was dispensed into the wells. Plates were left at 25°C for 30 min until the wells were dried, and the plates were incubated at 37°C overnight. The antibacterial activity was determined by the presence or absence of growth inhibition.
Figure S5. (A) Zones of growt h inhibition of epilancin 15X a nd nisin A against S. carnosus TM30 0 grown on BHI agar plates. The indicated amounts of antibiotics were placed in the well shown in the center of the zone of inhibition. […]

S. carnosus TM300 [3] = assay: MIC determination in 96-well microtiter plate; type: cell-based, Staphylococcus carnosus; conditions: BHI, 37°C, 10^5 CFU/mL, OD600 after 18 h
Method: (§1) MIC determination was performed in a 96-well microtiter plate as described previously ([Wu et al., 2019]). Sensitive bacterial culture was grown in the appropriate medium (BHI for S. carnosus; LB for B. subtilis) at 37°C overnight. The culture was diluted to 10^5 CFU/mL in medium in each well. Epilancin 15X or its analog was dissolved in water and serially diluted to obtain final concentrations of 20, 10, 5, 2.5, 1.25, 0.625, 0.3125, 0.156, 0.078, 0.039, 0.019, and 0.009 μM. OD600 readings were obtained after 18 h using a Synergy H4 Hybrid Multi-Mode Microplate Reader (BioTeK). Cell-free untreated medium, and untreated cell culture were used as negative controls. The MIC of nisin against B. subtilis BSF2470 was determined following the same methods.

[4] = test system: B. subtilis BSF2470 (1A980); assay: MIC determination in 96-well microtiter plate; type: cell-based, Bacillus subtilis; conditions: LB, 37°C, 10^5 CFU/mL, OD600 after 18 h
Method: as §1

[5] = Liposome leakage assay using flow cytometry (HaloTag / AF488 ligand); type: biochemical; conditions: 1 μM peptide, 37°C, 1 h
B. subtilis BSF2470 = assay: Membrane permeability study with propidium iodide (flow cytometry); type: cell-based, Bacillus subtilis; conditions: B. subtilis BSF2470, 20 min exposure, 0.5x, 1x, 4x MIC, n = 3
Method: (§2) Cultures of S. carnosus TM300 and B. subtilis BSF2470 were grown to OD600 1.0 and diluted to OD600 0.1 in fresh BHI or LB medium, respectively. The culture was then combined with a final concentration of 25 μM PI (ThermoFisher P3566), 1 mM HEPES, and 1 mM glucose. […] Another two tubes were prepared without antibiotic treatment as controls. The culture was analyzed with a BD Biosciences LSR II flow cytometer for S. carnosus and a BD Biosciences LSRFortessa for B. subtilis using excitation at 488 nm with an argon laser and measurement of emission through a band-pass filter at 695/40 nm. A minimum of 30,000 events were detected for each sample. The experiment was repeated three times, and the mean PI uptake value was determined. The results were calibrated such that the mean PI uptake from the 4x MIC nisin-treated cell culture was set as 100% PI uptake.

S. carnosus TM300 [6] = assay: as above; type: cell-based, Staphylococcus carnosus; conditions: S. carnosus TM300, 20 min exposure, 0.5x, 1x, 4x MIC, n = 3
Method: as §2

S. carnosus TM300 [7] = assay: Bright field (Airyscan) microscopy; type: cell-based, Staphylococcus carnosus; conditions: S. carnosus TM300, 0.5 MIC
[8] = test system: LiaRS response in B. subtilis BSF2470; conditions: cited from earlier work
Excerpt: To investigate the effect of epilancin 15X on the cell envelope, we employed the two-component LiaRS reporter system in B. subtilis (lipid II cycle interfering antibiotic response regulator and sensor; [Mascher et al., 2004]). Briefly, the LiaRS assay is a disk diffusion assay used to screen for the ability of compounds to induce β-galactosidase expression in engineered B. subtilis BSF2470 ([Mascher et al., 2004]). Molecules that produce a blue ring around the edge of the zone of growth inhibition are believed to interfere with the lipid II cycle ([Hachmann et al., 2009]). Most membrane disrup ...

Compound: O=C(COC(=O)Cc1coc2ccc3ccccc3c12)Nc1nnc(-c2ccccc2)o1 [LtaS-IN-1]
- LiaRS response (blue ring at the edge of the zone of inhibition) [1]: did not induce a blue zone

Compound: nisin: lantibiotic, lipid II binding pore former, positive control (ITSISLCTPGCKTGALMGCNMKTATCHCSIHVSK; not fully specified (some residues, bridges); cysteine pairing not given here; UniProt P13068 24-57, looked up) [reference compound]
- antagonism of bioactivity (zone of growth inhibition) by purified S. aureus LTA (S. carnosus TM300 [2]): not
- MIC (S. carnosus TM300 [3]): 0.5 µM
- MIC [4]: 0.625 µM
- LiaRS response (blue ring at the edge of the zone of inhibition) [1]: induce a LiaRS response
- fluorescence signal (pore formation) ([5]; POPC-cholesterol liposomes with 0.1% lipid II): substantial increase in fluorescence signal
- fluorescence signal (pore formation) compared to buffer control ([5]; POPC-cholesterol liposomes without lipid II): no increase in fluorescence signal
- PI uptake (membrane disruption) (B. subtilis BSF2470): more substantial
- PI uptake (membrane disruption) (S. carnosus TM300 [6]): more substantial
- aggregation phenotype of cells (brightfield) (S. carnosus TM300 [7]): Aggregation was not observed

Compound: melittin
- LiaRS response (blue ring at the edge of the zone of inhibition) [1]: did not induce a LiaRS response

Compound: magainin 2
- LiaRS response (blue ring at the edge of the zone of inhibition) [1]: did not induce a LiaRS response

Compound: CC[C@@]1([C@@H]2O[C@@H]([C@H]3O[C@@](O)(CO)[C@H](C)C[C@@H]3C)C[C@@H]2C)CC[C@H]([C@]2(C)CC[C@]3(C[C@H](O)[C@@H](C)[C@@H]([C@@H](C)[C@@H](OC)[C@H](C)C(=O)O)O3)O2)O1 [monensin]
- LiaRS response ([8]; ref Wex et al., 2021): do not induce a LiaRS response

Compound: colistin
- LiaRS response ([8]; ref Wex et al., 2021): do not induce a LiaRS response

Compound: CC1(C)S[C@@H]2[C@H](NC(=O)[C@H](N)c3ccccc3)C(=O)N2[C@H]1C(=O)O [ampicillin]
- LiaRS response (blue ring at the edge of the zone of inhibition) [1]: did not induce a LiaRS response

Compound: Bacitracin
- LiaRS response (blue ring at the edge of the zone of inhibition) [1]: induce a LiaRS response

Compound: polymyxin
- LiaRS response ([8]; ref Wex et al., 2021): do not induce a LiaRS response

Compound: CN[C@H](CC(C)C)C(=O)N[C@H]1C(=O)N[C@@H](CC(N)=O)C(=O)N[C@H]2C(=O)N[C@H]3C(=O)N[C@H](C(=O)N[C@H](C(=O)O)c4cc(O)cc(O)c4-c4cc3ccc4O)[C@H](O)c3ccc(c(Cl)c3)Oc3cc2cc(c3O[C@@H]2O[C@H](CO)[C@@H](O)[C@H](O)[C@H]2O[C@H]2C[C@](C)(N)[C@H](O)[C@H](C)O2)Oc2ccc(cc2Cl)[C@H]1O [vancomycin]
- LiaRS response (blue ring at the edge of the zone of inhibition) [1]: induce a LiaRS response

Compound: tunicamycin
- LiaRS response ([8]; B. subtilis, ref Mascher et al., 2004): positive LiaRS response
